Tests used:
Assay in all cases: Growth-promoting (prebiotic) effect, OD600 after 24 hr anaerobic culture in GAM bouillon
Type in all cases: cell-based
[1] = tested on: Bifidobacterium longum subsp. Longum 1217 strain; settings: B. longum subsp. Longum 1217, 0.5 (w/v) % oligosaccharide, 37° C.
Description: (§1) The microorganisms were purchased from independent administrative agency RIKEN Tsukuba Laboratory BioResource Center (3-1-1 Koyadai, Tsukuba, Ibaraki 305-0074, Japan). As Bifidobacterium longum subsp. longum NCC2705, the strain preserved under GenBank accession number NC004307 was used.
(§2) Glycerol stock of each strain shown in Table 1 was plated in GAM bouillon (manufactured by Nissui Pharmaceutical Co., Ltd.) agar medium, and cultured using a gas pack (“Anaeropack”, manufactured by Mitsubishi Gas Chemical Company, Inc.), under anaerobic conditions at 37° C. for 2 days to renature the test strain. Each strain was inoculated in 5 mL GAM bouillon liquid medium, and precultured in the same manner as above under an anaerobic condition at 37° C. for 18 hr.
(§3) The turbidity (OD600) of each culture medium was measured at wavelength 600 nm on completion of the preculture. The preculture medium was seeded in 1 mL of main test liquid medium such that the OD600 value at the time of start of the culture was 0.010, the cells were cultured under anaerobic conditions at 37° C. for 24 hr in the same manner as above, and OD600 of the culture medium was measured on completion of the culture. The liquid medium for the test was prepared by adding LNT or LNnT to the GAM bouillon liquid medium at a final concentration of 0.5 (w/v) %. In addition, GAM bouillon liquid medium free of both oligosaccharides LNT, LNnT was used as a control. To evaluate the growth-promoting effect (prebiotic effect) of LNT and LNnT, the relative value of the oligosaccharide (LNT or LNnT) addition plot, when the measurement value OD600 of the oligosaccharide non-addition plot (control) was 1, is shown in FIG. 2.

[2] = tested on: Bifidobacterium longum subsp. Longum 7054 strain; settings: B. longum subsp. Longum 7054, 0.5 (w/v) % oligosaccharide, 37° C.
Description: as §1, §2, §3

[3] = tested on: Bifidobacterium longum subsp. Longum NCC2705 strain; settings: B. longum subsp. Longum NCC2705, 0.5 (w/v) % oligosaccharide, 37° C.
Description: as §1, §2, §3

Measured: prebiotic effect (OD600 of oligosaccharide addition test plot/OD600 of control plot)

4-O-[3-[2-(acetylamino)-2-deoxy-3-O-(β-D-galactopyranosyl)-β-D-glucopyranosyl]-β-D-galactopyranosyl]-D-glucose [LNT]
≥ 2 fold: all assays above

— patent US20150119360A1, “COMPOSITION FOR PROMOTING BIFIDOBACTERIA GROWTH” (Kyoto University, priority 2012, published 2015)
